The record followed here is ChEMBL document CHEMBL1129725, “Synthesis and antitumor activity of 7-substituted 20(RS)-camptothecin analogues” (Bioorg Med Chem Lett, 1996).

Holding throughout (assay type): functional, cell-based
One assay has as its system L1210. In words: Cytotoxicity against L1210 tumor cell lines in mice. To be noted: Mus musculus.
For the next assay, the system named is Caov-3 cell line. In words: Cytotoxicity against CAOV-3 human tumor cell lines.
The test system of a further assay is A 172. In words: Cytotoxicity against A-172 human tumor cell lines.
Another assay has as its system DLD-1. Description: Cytotoxicity against DLD-1 human tumor cell lines.
Assay [1] deals with KATO III stomach cancer cell line. In words: Cytotoxicity against KATO-III human tumor cell lines.

Where only a bound is given, the exact number is not on record here.

`CCC1(O)C(=O)OCc2c1cc1n(c2=O)Cc2c-1nc1ccccc1c2CCN(CCO)C(=O)OCc1ccccc1` (stereo not given): the IC50 is 2900 nM with L1210; 1140 nM in the assay on Caov-3 cell line; 1920 nM in the assay with A 172; 9720 nM in the assay with DLD-1; 13.8 µM in assay [1].

Consider `CCC1(O)C(=O)OCc2c1cc1n(c2=O)Cc2c-1nc1ccccc1c2CCN(CCOC(C)=O)C(=O)OCc1ccccc1` (stereo not given), for which the IC50 came to 9080 nM in the assay with L1210; 4480 nM in the assay with Caov-3 cell line; 18600 nM with A 172; 15800 nM with DLD-1; 16.6 µM in assay [1].

With `CCC1(O)C(=O)OCc2c1cc1n(c2=O)Cc2c-1nc1ccccc1c2CCN1CCCCC1` (stereo not given), the IC50 was more than 100000 nM with L1210; more than 100000 nM in the assay with Caov-3 cell line; 51100 nM in the assay on A 172; more than 100000 nM in the assay on DLD-1; more than 100 µM in assay [1].

For the compound `CCCN(CCc1c2c(nc3ccccc13)-c1cc3c(c(=O)n1C2)COC(=O)C3(O)CC)C(=O)OCc1ccccc1` (stereo not given), the IC50 came out at 1090 nM in the assay with L1210; 140 nM in the assay on Caov-3 cell line; 2330 nM in the assay on A 172; 550 nM with DLD-1; 0.51 µM in assay [1].

Take `CCNCCc1c2c(nc3ccccc13)-c1cc3c(c(=O)n1C2)COC(=O)C3(O)CC` (stereo not given): the IC50 with L1210 came to 640 nM; in the assay on Caov-3 cell line, 200 nM; in the assay on A 172, 85 nM; in the assay with DLD-1 it was 440 nM; in assay [1] it was 0.36 µM.

On to `CCC1(O)C(=O)OCc2c1cc1n(c2=O)Cc2c-1nc1ccccc1c2CCN1CCOCC1` (stereo not given), for which the IC50 was more than 100000 nM in the assay on L1210; 42200 nM in the assay with Caov-3 cell line; 81800 nM in the assay with A 172; more than 100000 nM in the assay with DLD-1; 82 µM in assay [1].

Turning to `CCC1(O)C(=O)OCc2c1cc1n(c2=O)Cc2c-1nc1ccccc1c2CCNCc1ccccc1` (stereo not given), the IC50 with L1210 was 4030 nM; in the assay with Caov-3 cell line, 170 nM; in the assay with A 172, 280 nM; in the assay on DLD-1, 310 nM; in assay [1], 0.85 µM.

With `CCC1(O)C(=O)OCc2c1cc1n(c2=O)Cc2c-1nc1ccccc1c2CCNCCO` (stereo not given), the IC50 amounted to 13000 nM in the assay on L1210; 4630 nM in the assay on Caov-3 cell line; 23300 nM with A 172; 8790 nM with DLD-1; 47.8 µM in assay [1].

For the compound `CCC1(O)C(=O)OCc2c1cc1n(c2=O)Cc2c-1nc1ccccc1c2CCN(C(=O)OCc1ccccc1)C(C)C` (stereo not given), the IC50 stood at 1290 nM in the assay with L1210; 41 nM in the assay on Caov-3 cell line; 950 nM in the assay with A 172; 1830 nM in the assay on DLD-1; 1.85 µM in assay [1].

With `CCC1(O)C(=O)OCc2c1cc1n(c2=O)Cc2c-1nc1ccccc1c2CCNCCOC(C)=O` (stereo not given), the IC50 with L1210 amounted to 4360 nM; in the assay on Caov-3 cell line, 880 nM; in the assay with A 172, 740 nM; with DLD-1, 3480 nM; in assay [1] it was 0.82 µM.

`CCN(CCc1c2c(nc3cc4c(cc13)OCO4)-c1cc3c(c(=O)n1C2)COC(=O)C3(O)CC)C(=O)OCc1ccccc1` (stereo not given): the half-inhibitory concentration (IC50) was 3520 nM in the assay with L1210; 1740 nM in the assay with Caov-3 cell line; 2830 nM in the assay on A 172; 24200 nM in the assay on DLD-1; 23.1 µM in assay [1].

For the compound `CCC1(O)C(=O)OCc2c1cc1n(c2=O)Cc2c-1nc1ccccc1c2CCN1CCCC1` (stereo not given), the IC50 in the assay with L1210 is more than 100000 nM; in the assay with Caov-3 cell line, more than 100000 nM; in the assay with A 172, more than 100000 nM; with DLD-1, more than 100000 nM; in assay [1] it was more than 100 µM.

In the case of `CCC1(O)C(=O)OCc2c1cc1n(c2=O)Cc2c-1nc1ccccc1c2CCN(Cc1ccccc1)C(=O)OCc1ccccc1` (stereo not given), the IC50 stood at 700 nM with L1210; 1970 nM in the assay on Caov-3 cell line; 1180 nM in the assay on A 172; 1060 nM in the assay on DLD-1; 14 µM in assay [1].

On to `CCC1(O)C(=O)OCc2c1cc1n(c2=O)Cc2c-1nc1ccccc1c2CCNC(C)C` (stereo not given), for which the IC50 in the assay with L1210 is 130 nM; in the assay with Caov-3 cell line, 41 nM; in the assay with A 172 it was 110 nM; in the assay with DLD-1, 110 nM; in assay [1] it was 0.04 µM.

`CC[C@@]1(O)C(=O)OCc2c1cc1n(c2=O)Cc2cc3ccccc3nc2-1` [CAMPTOTHECIN]: the IC50 in the assay on L1210 amounted to 180 nM; with Caov-3 cell line it was 30 nM; in the assay on A 172, 140 nM; in the assay with DLD-1 it was 210 nM; in assay [1], 1.17 µM.

For orientation: IC50 means the concentration that inhibits the measured activity by half.
